Results on 10 compounds are retold here after patent publication US20080300317A1 (Chevron U.S.A. Inc., priority 2007, published 2008).

Read-outs that look alike come from different tables or passages of the source.

Series [1] deals with Vero cells.
Series [2] relates to influenza A/PR/8/34 (H1N1). Kind of series: microbe, parasite or virus in culture. It is filed as cell-based, influenza A virus.
Series [3] deals with influenza A/WS/33 (H1N1). Nature of the series: microbe, parasite or virus in culture. Type of series: cell-based, influenza A virus.
Series [4] concerns influenza B/GL/1739/54. Nature of the series: Anti-viral EC50 experiment, survival of virus-infected Vero cells. It is filed as cell-based, influenza B virus. Conditions: for EC50 Virus B/GL/1739/54: Table 3, Vero cells, n at least 2, No effic. = no efficacy measured; for EC50: Influenza B virus, Vero, Table 4, controls, cutoff control values, determined over only 2 experiments. The method, then: The following MDT compounds were tested: MDT-1, MDT-3, MDT-10, MDT-11, MDT-12, MDT-13, MDT-14, MDT-15, MDT-16, MDT-22, MDT-23, MDT-24, MDT-26, MDT-27, MDT-28, MDT-29, MDT-30, MDT-31, MDT-32, MDT-33, MDT-34, MDT-40, MDT-41, MDT-42, MDT-43, MDT-44, MDT-45, MDT-46, MDT-47, MDT-48, MDT-49, MDT-50, MDT-51, MDT-53, MDT-56, MDT-57, MDT-58, MDT-59, MDT-60, MDT-61, MDT-62, MDT-63, MDT-65, MDT-67, MDT-68 and MDT-69. […] Amantadine and rimantadine are both adamantane derivatives.
Compound diluents were dimethyl sulfoxide (DMSO), Molecusol ((2-hydroxypropyl)-β-cyclodextrin; Sigma H107), propylene-glycol (PG) and deionized water. Diluents were used singly or in combination as necessary to dissolve the compounds.
The medium used for the cell lines was 1× Minimal Essential Medium (MEM) (Invitrogen) supplemented with 1% L-glutamine, 1% penicillin-streptomycin, 0.125% bovine serum albumin (BSA), and 1 μg/ml of TPCK-trypsin.
The viruses tested were influenza A/PR/8/34 (H1N1), influenza A/WS/33 (H1N1), influenza A/HK/8/68 (H3N2) and influenza B/GL/1739/54 (no H, N subtyping). Cells used were the Vero line of African green monkey, normal kidney cells. All viruses and cells were obtained from The American Type Culture Collection (Rockville, Md.). Cells were grown in an atmosphere of 4-6% CO2 at 34-38° C. in MEM with 5% fetal bovine serum (FBS), 2 mM glutamine, and 1% penicillin-streptomycin solution to maintain exponential growth.
The Vero cells were plated on Day 0. On Day 1, cells were infected with virus and incubated with various concentrations of test compounds. […] On Day 4 the cells were fixed and stained. […] Cell survival due to exposure to test compound was indicative of anti-viral activity.

Series [5] concerns influenza A/HK/8/68 (H3N2). Kind of series: microbe, parasite or virus in culture. Type of series: cell-based, influenza A virus.
[6] abbreviates: Table 3, MDT compounds, No Tox. = no cytotoxicity measured.
Where [7] appears, read: Table 3, Vero cells, H1N1, n at least 2, No effic. = no efficacy measured, read-out: EC50 Virus A/PR/8/34.
Setting [8] is: Table 3, Vero cells, H1N1, n at least 2, No effic. = no efficacy measured, read-out: EC50 Virus A/WS/33.
Where [9] appears, read: Table 3, Vero cells, H3N2, n at least 2, No effic. = no efficacy measured.
Where [10] appears, read: Table 3, Vero cells, H1N1, n at least 2, No effic. = no efficacy measured.
Setting [11] is: Table 3, Vero cells, H3N2, n at least 2, No effic. = no efficacy measured, read-out: EC50 Virus A/HK/8/68.
Setting [12] is: Table 4, controls, No Tox = no cytotoxicity measured.
[13] abbreviates: Influenza A virus, Vero, Table 4, controls, cutoff control values compiled through many experiments.
[14] abbreviates: Influenza A virus, H1N1, Vero, Table 4, controls, cutoff control values compiled through many experiments.
Where [15] appears, read: Influenza A virus, H3N2, Vero, Table 4, controls, cutoff control values compiled through many experiments.

As for `CC12CC3CC4C1CC1CC2C(N)(C3)C4(C)C1` (centres unmarked) [MDT-43, 1,6-dimethyl-2-aminodiamantane], in series [1] (setting [6]), the Cytotoxicity is listed as 10 or above μM. Further, the EC50 in series [2] (setting [7]) came to 60 nM; in series [3] (setting [8]), 820 nM. For the same compound, in series [4], the “EC50 Virus B/GL/1739/54” value is listed as “No Effic”. For the same compound, the “EC50 Virus A/HK/8/68” value in series [5] (setting [9]) was “No Effic”.

In the case of `CC12CC3CC4C1CC1CC2C(O)(C3)C4(C)C1` (centres unmarked) [MDT-44, 1,6-dimethyl-2-hydroxydiamantane], the Cytotoxicity entry in series [1] (setting [6]) is “No Tox”. Besides, the EC50 in series [2] (setting [7]) was 50 nM; in series [3] (setting [8]), 610 nM. Moreover, the “EC50 Virus B/GL/1739/54” value in series [4] is on record as “No Effic”. Also, the “EC50 Virus A/HK/8/68” value in series [5] (setting [9]) was “No Effic”.

For the compound `CC12CC3CC4C1CC1(O)CC2C(C3)C4(C)C1` [MDT-45, 1,6-dimethyl-4-hydroxydiamantane], in series [1] (setting [6]), the Cytotoxicity entry was “No Tox”. The EC50 in series [2] (setting [7]) came to 20 nM; in series [3] (setting [8]), 300 nM. The “EC50 Virus B/GL/1739/54” value in series [4] is recorded as “No Effic”. Moreover, in series [5] (setting [9]), the “EC50 Virus A/HK/8/68” value is listed as “No Effic”.

Regarding `CC12CC3CC4C1CC1(C(=O)O)CC2C(C3)C4(C)C1` [MDT-46, 1,6-dimethyl-4-diamantanecarboxylic acid], the Cytotoxicity result in series [1] (setting [6]) is reported as “No Tox”. The EC50 in series [2] (setting [7]) and in series [3] (setting [8]) was below 125 nM throughout. In series [4], the “EC50 Virus B/GL/1739/54” value is given as “No Effic”. For the same compound, in series [5] (setting [9]), the “EC50 Virus A/HK/8/68” value is listed as “No Effic”.

Take `CC12CC3C4CC5(C)CC3C(C1)C(O)(C5)C4C2` [MDT-47, 4,9-dimethyl-1-hydroxydiamantane]: the Cytotoxicity result in series [1] (setting [6]) is given as “No Tox”. The EC50 was below 125 nM in series [2] (setting [7]) and 460 nM in series [3] (setting [8]). The “EC50 Virus B/GL/1739/54” value in series [4] is “No Effic”. In addition, the “EC50 Virus A/HK/8/68” value in series [5] (setting [9]) is “No Effic”.

As to `CC(N)C12CC3CC4C5CC(CC41)CC2C5C3` (centres unmarked) [MDT-57, 1-(1-aminoethyl)diamantane], the Cytotoxicity in series [1] (setting [6]) is recorded as 50 or above μM. Further, the “EC50 Virus A/PR/8/34” value in series [2] (setting [10]) is “No Effic”. Moreover, the “EC50 Virus A/WS/33” value in series [3] (setting [10]) is “No Effic”. In addition, in series [4], the “EC50 Virus B/GL/1739/54” value was “No Effic”. In series [5] (setting [11]), the EC50 was 160 nM.

As for `NCC12CC3C4CC5CC3C(C1)C(C5)C4C2` [MDT-61, 4-diamantanemethylamine], in series [1] (setting [6]), the Cytotoxicity was 50 or above μM. The “EC50 Virus A/PR/8/34” value in series [2] (setting [10]) is listed as “No Effic”. Also, the “EC50 Virus A/WS/33” value in series [3] (setting [10]) is given as “No Effic”. In addition, the “EC50 Virus B/GL/1739/54” value in series [4] is listed as “No Effic”. The EC50 in series [5] (setting [11]) was determined as 100 nM.

Regarding `CC(N)C12CC3C4CC5CC3C(C1)C(C5)C4C2` (centres unmarked) [MDT-62, 4-(1-aminoethyl)diamantane], the Cytotoxicity in series [1] (setting [6]) is listed as 50 or above μM. The EC50 in series [2] (setting [7]) came out at 280 nM; in series [3] (setting [8]), 1940 nM. In series [4], the “EC50 Virus B/GL/1739/54” value was “No Effic”. Besides, the “EC50 Virus A/HK/8/68” value in series [5] (setting [9]) was “No Effic”.

For the compound `CCOC(=O)C1=C[C@@H](OC(CC)CC)[C@H](NC(C)=O)[C@@H](N)C1` [Oseltamivir, reference compound], the Cytotoxicity result in series [1] (setting [12]) was “No Tox”. Moreover, the EC50 in series [2] (setting [13]) is at least 10000 nM; in series [3] (setting [14]), at least 5000 nM; in series [4], at least 15000 nM; in series [5] (setting [15]), at most 1000 nM.

On to `CC(N)C12CC3CC(CC(C3)C1)C2.Cl` (stereo not drawn) [Rimantadine, alpha-methyl-1-adamantanemethylamine hydrochloride, reference compound], for which the Cytotoxicity result in series [1] (setting [12]) is on record as “No Tox”. Moreover, the EC50 is at least 1000 nM in series [2] (setting [13]), at least 50000 nM in series [3] (setting [14]), at least 50000 nM in series [4] and at most 1000 nM in series [5] (setting [15]).
